In US10308660B2, “Compounds and compositions for inhibiting the activity of SHP2” (Novartis AG, priority 2015, dated 2019):

Molecular target: SHP2 (Homo sapiens (Human), UniProt Q06124)
Assay: SHP2 allosteric inhibition assay (DiFMUP prompt fluorescence)
Format: biochemical
Details: 0.5 nM SHP2 activated with 0.5 μM peptide IRS1_pY1172(dPEG8)pY1222; substrate DiFMUP; 25° C.

Row | IC50 [µM] | SMILES
1 | 0.047 | C[C@@H]1CC2(CCN(c3nc(N)c(Sc4ccnc(N)c4Cl)c(=O)n3C)CC2)[C@@H](N)[C@H]1F (single isomer, unassigned) [Example 37]
2 | 0.03 | C[C@@H]1CC2(CCN(c3nc(N)c(Sc4ccnc(N)c4Cl)c(=O)n3C)CC2)[C@H](N)[C@@H]1F (single isomer, unassigned) [Example 38]
3 | 0.856 | C[C@H]1CC2(CCN(c3nc(N)c(Sc4cccnc4C(F)(F)F)c(=O)n3C)CC2)[C@@H](N)[C@@H]1C(F)(F)F (single isomer, unassigned) [Example 64]
4 | 0.061 | C[C@H]1CC2(CCN(c3nc(N)c(Sc4cccnc4C(F)(F)F)c(=O)n3C)CC2)[C@H](N)[C@@H]1C(F)(F)F (single isomer, unassigned) [Example 65]
5 | 0.044 | C[C@@H]1OCC2(CCN(c3nc(N)c(Sc4ccnc(N)c4Cl)c(=O)n3C)CC2)[C@@H]1N [Example 3]
6 | 0.053 | Cn1c(N2CCC(C)(CN)CC2)nc(N)c(Sc2ccnc(N)c2Cl)c1=O [Example 4]
7 | 2.21 | Cn1c(N2CCC(C)(CN)CC2)nc(N)c(Sc2cccc(Cl)c2)c1=O [Example 5]
8 | 0.286 | Cn1c(N2CCC(C)(CN)CC2)nc(N)c(Sc2ccccc2Cl)c1=O [Example 6]
9 | 0.109 | Cn1c(N2CCC(C)(CN)CC2)nc(N)c(Sc2cccnc2C(F)(F)F)c1=O [Example 7]
10 | 0.232 | Cn1c(N2CCC(C)(CN)CC2)nc(N)c(Sc2cccc(N)c2Cl)c1=O [Example 8]
11 | 0.047 | COc1cccc(Sc2c(N)nc(N3CCC(C)(CN)CC3)n(C)c2=O)c1Cl [Example 9]
12 | 5.63 | Cn1c(N2CCC(C)(CN)CC2)nc(N)c(Sc2cccc(C#N)c2)c1=O [Example 10]
13 | 0.441 | Cn1c(N2CCC(C)(CN)CC2)nc(N)c(Sc2cccc(OC(F)(F)F)c2)c1=O [Example 11]
14 | 0.039 | Cn1c(N2CCC3(CCC[C@H]3N)CC2)nc(N)c(Sc2cccc(Cl)c2Cl)c1=O [Example 13]
15 | 0.098 | Cn1c(N2CCC3(CCC[C@H]3N)CC2)nc(N)c(Sc2cccnc2C(F)(F)F)c1=O [Example 14]
16 | 0.022 | Cn1c(N2CCC3(CC2)COC[C@H]3N)nc(N)c(Sc2ccnc(N)c2Cl)c1=O [Example 16]
17 | 0.014 | C[C@@H]1OCC2(CCN(c3nc(N)c(Sc4cc(N)nc(Cl)c4Cl)c(=O)n3C)CC2)[C@@H]1N [Example 19]
18 | 0.017 | COc1cccc(Sc2c(N)nc(N3CCC4(CC3)CO[C@@H](C)[C@H]4N)n(C)c2=O)c1Cl [Example 20]
19 | 0.028 | C[C@H]1C[C@@H](N)C2(CCN(c3nc(N)c(Sc4ccnc(N)c4Cl)c(=O)n3C)CC2)C1 [Example 21]
20 | 0.108 | C[C@@H]1OCC2(CCN(c3nc(N)c(Sc4cccnc4OC(F)(F)F)c(=O)n3C)CC2)[C@@H]1N [Example 22]
21 | 0.023 | COc1nccc(Sc2c(N)nc(N3CCC4(CC3)CO[C@@H](C)[C@H]4N)n(C)c2=O)c1Cl [Example 23]
22 | 0.299 | Cn1c(N2CCC(C)(CN)CC2)nc(N)c(Sc2cccc3ncccc23)c1=O [Example 24]
23 | 0.038 | C[C@@H]1OCC2(CCN(c3nc(N)c(Sc4cccc(N)c4Cl)c(=O)n3C)CC2)[C@@H]1N [Example 25]
24 | 0.082 | C[C@@H]1OCC2(CCN(c3nc(N)c(Sc4ccccc4)c(=O)n3C)CC2)[C@@H]1N [Example 26]
25 | 0.025 | C[C@@H]1OCC2(CCN(c3nc(N)c(Sc4ccccc4Cl)c(=O)n3C)CC2)[C@@H]1N [Example 27]

Row | IC50 [µM] | SMILES
26 | 0.028 | C[C@@H]1OCC2(CCN(c3nc(N)c(Sc4ccnc(N5CCCC5)c4Cl)c(=O)n3C)CC2)[C@@H]1N [Example 28]
27 | 0.032 | CCOc1nccc(Sc2c(N)nc(N3CCC4(CC3)CO[C@@H](C)[C@H]4N)n(C)c2=O)c1Cl [Example 30]
28 | 0.02 | C[C@@H]1OCC2(CCN(c3nc(N)c(Sc4cccc(N)c4C(F)(F)F)c(=O)n3C)CC2)[C@@H]1N [Example 31]
29 | 0.04 | C[C@@H]1CC2(CCN(c3nc(N)c(Sc4cccnc4C(F)(F)F)c(=O)n3C)CC2)[C@H](N)C1(F)F [Example 33]
30 | 0.057 | C[C@@H]1CC2(CCN(c3nc(N)c(Sc4ccnc(N)c4Cl)c(=O)n3C)CC2)[C@H](N)C1(F)F [Example 34]
31 | 0.024 | Cn1c(N2CCC3(CC2)C[C@H](F)C[C@H]3N)nc(N)c(Sc2cccnc2C(F)(F)F)c1=O [Example 35]
32 | 0.069 | Cn1c(N2CCC3(CC2)C[C@H](F)C[C@H]3N)nc(N)c(Sc2ccnc(N)c2Cl)c1=O [Example 36]
33 | 0.014 | Cn1c(N2CCC3(CC2)CC(F)(F)C[C@H]3N)nc(N)c(Sc2ccnc(N)c2Cl)c1=O [Example 42]
34 | 0.018 | Cn1c(N2CCC3(CC2)CC(F)(F)C[C@H]3N)nc(N)c(Sc2cccnc2C(F)(F)F)c1=O [Example 43]
35 | 0.137 | Cn1c(N2CCC(C)(CN)CC2)nc(N)c(Sc2ccccc2Br)c1=O [Example 45]
36 | 0.089 | Cn1c(N2CCC(C)(CN)CC2)nc(N)c(Sc2ccccc2OC(F)(F)F)c1=O [Example 46]
37 | 0.206 | COc1ccccc1Sc1c(N)nc(N2CCC(C)(CN)CC2)n(C)c1=O [Example 47]
38 | 0.3 | Cn1c(N2CCC(C)(CN)CC2)nc(N)c(Sc2ccccc2[N+](=O)[O-])c1=O [Example 48]
39 | 0.074 | Cn1c(N2CCC(C)(CN)CC2)nc(N)c(Sc2ccccc2C(F)(F)F)c1=O [Example 49]
40 | 0.152 | Cn1c(N2CCC(C)(CN)CC2)nc(N)c(Sc2cccc3c2OC(F)(F)O3)c1=O [Example 50]
41 | 0.391 | Cn1c(N2CCC(C)(CN)CC2)nc(N)c(Sc2ccccc2C#N)c1=O [Example 51]
42 | 0.721 | Cn1c(N2CCC(C)(CN)CC2)nc(N)c(Sc2ccccc2O)c1=O [Example 52]
43 | 0.609 | Cn1c(N2CCC(C)(CN)CC2)nc(N)c(Sc2ccc(N)cc2Cl)c1=O [Example 53]
44 | 0.2 | Cc1ccccc1Sc1c(N)nc(N2CCC(C)(CN)CC2)n(C)c1=O [Example 54]
45 | 0.045 | Cn1c(N2CCC(C)(CN)CC2)nc(N)c(Sc2cccc3ccccc23)c1=O [Example 55]
46 | 0.17 | Cn1c(N2CCC(C)(CN)CC2)nc(N)c(Sc2ccc(Cl)cc2Cl)c1=O [Example 56]
47 | 0.279 | Cn1c(N2CCC(C)(CN)CC2)nc(N)c(Sc2cccc3cccnc23)c1=O [Example 57]
48 | 0.043 | C[C@@H]1OCC2(CCN(c3nc(N)c(Sc4ccnc(C(F)(F)F)c4Cl)c(=O)n3C)CC2)[C@@H]1N [Example 59]
49 | 0.016 | C[C@H]1C[C@@H](N)C2(CCN(c3nc(N)c(Sc4cccc(N)c4Cl)c(=O)n3C)CC2)C1 [Example 60]
50 | 0.093 | C[C@@H]1OCC2(CCN(c3nc(N)c(Sc4ccncc4C(F)(F)F)c(=O)n3C)CC2)[C@@H]1N [Example 61]

Row | IC50 [µM] | SMILES
51 | 0.025 | C[C@H]1C[C@@H](N)C2(CCN(c3nc(N)c(Sc4ccnc(N5CCCC5)c4Cl)c(=O)n3C)CC2)C1 [Example 62]
52 | 0.034 | Cn1c(N2CCC3(CC2)COC[C@H]3N)nc(N)c(Sc2cccnc2C(F)(F)F)c1=O [Example 63]
53 | 0.02 | C[C@H]1C[C@@H](N)C2(CCN(c3nc(N)c(Sc4cccnc4Cl)c(=O)n3C)CC2)C1 [Example 66]
54 | 0.01 | C[C@H]1C[C@@H](N)C2(CCN(c3nc(N)c(Sc4cc(N)cnc4Cl)c(=O)n3C)CC2)C1 [Example 68]
55 | 0.01 | C[C@H]1C[C@@H](N)C2(CCN(c3nc(N)c(Sc4cc(N)ccc4Cl)c(=O)n3C)CC2)C1 [Example 69]
56 | 0.011 | C[C@H]1C[C@@H](N)C2(CCN(c3nc(N)c(Sc4cc(N)nc(Cl)c4Cl)c(=O)n3C)CC2)C1 [Example 70]
57 | 0.033 | Cn1c(N2CCC3(CC2)COC[C@H]3N)nc(N)c(Sc2cccc(Cl)c2Cl)c1=O [Example 72]
58 | 0.071 | C[C@H]1C[C@@H](N)C2(CCN(c3nc(N)c(Sc4ccnc(Cl)c4C(F)(F)F)c(=O)n3C)CC2)C1 [Example 73]
59 | 0.018 | C[C@H]1C[C@@H](N)C2(CCN(c3nc(N)c(Sc4ccncc4C(F)(F)F)c(=O)n3C)CC2)C1 [Example 75]
60 | 0.027 | C[C@H]1C[C@@H](N)C2(CCN(c3nc(N)c(Sc4ccncc4Cl)c(=O)n3C)CC2)C1 [Example 76]
61 | 0.039 | COc1nccc(Sc2c(N)nc(N3CCC4(CC3)C[C@@H](C)C[C@H]4N)n(C)c2=O)c1Cl [Example 77]
62 | 0.012 | C[C@@H]1OCC2(CCN(c3nc(N)c(Sc4cccc5c4OCO5)c(=O)n3C)CC2)[C@@H]1N [Example 78]
63 | 0.37 | COc1ccc(Sc2c(N)nc(N3CCC4(CC3)CO[C@@H](C)[C@H]4N)n(C)c2=O)cc1F [Example 79]
64 | 0.068 | Cc1ncccc1Sc1c(N)nc(N2CCC3(CC2)CO[C@@H](C)[C@H]3N)n(C)c1=O [Example 80]
65 | 0.015 | C[C@@H]1OCC2(CCN(c3nc(N)c(Sc4ccc(F)cc4Cl)c(=O)n3C)CC2)[C@@H]1N [Example 81]
66 | 0.025 | Cn1c(N2CCC3(CC2)CC(F)(F)C[C@H]3N)nc(N)c(Sc2ccc(F)cc2Cl)c1=O [Example 82]
67 | 0.056 | Cn1c(N2CCC3(CC2)C[C@H](C(F)(F)F)C[C@H]3N)nc(N)c(Sc2cccnc2C(F)(F)F)c1=O [Example 83]
68 | 0.072 | Cn1c(N2CCC3(CC2)C[C@@H](C(F)(F)F)C[C@H]3N)nc(N)c(Sc2cccnc2C(F)(F)F)c1=O [Example 84]
69 | 0.077 | Cn1c(N2CCC3(CC2)CC(F)(F)C[C@H]3N)nc(N)c(Sc2ccccc2Cl)c1=O [Example 85]
70 | 0.022 | CC[C@@H]1OCC2(CCN(c3nc(N)c(Sc4ccnc(C)c4Cl)c(=O)n3C)CC2)[C@@H]1N [Example 86]
71 | 0.021 | CC[C@@H]1OCC2(CCN(c3nc(N)c(Sc4cccnc4C(F)(F)F)c(=O)n3C)CC2)[C@@H]1N [Example 87]
72 | 0.042 | C[C@@H]1OCC2(CCN(c3cc(N)c(Sc4cccnc4C(F)(F)F)c(=O)[nH]3)CC2)[C@@H]1N [Example 88, 4-amino-6-((3S,4S)-4-amino-3-methyl-2-oxa-8-azaspiro[4.5]decan-8-yl)-3-((2-(trifluoromethyl)pyridin-3-yl)thio)pyridin-2(1H)-one]
73 | 0.066 | CC1(CN)CCN(c2nc(N)c(Sc3cccnc3C(F)(F)F)c(=O)[nH]2)CC1 [Example 90, 6-amino-2-(4-(aminomethyl)-4-methylpiperidin-1-yl)-5-((2-(trifluoromethyl)pyridin-3-yl)thio)pyrimidin-4(3H)-one]
